In patent US6787564B2, “Optically active clausenamides, process of the preparation thereof, pharmaceutical composition containing the same and their medical use” (Institute of Materia Medica, Chinese Academy of Medical …, priority 2002, dated 2004):

How the values were obtained:
[1] = tested on: zif/268; assay: protein biosyntheses of mice brain and zif/268 expression; settings: mouse, in vivo
[2] = tested on: calpain; assay: calpain activity in the cortical and hippocampal tissue; format: in vivo, rats; settings: without HFS, Nimodipine 2 nmol, mean ± S.D., n = 5
Text: The rats were anaesthetized with urethane carbonate.

[3] = tested on: isolated mitochondria; assay: Bax α induced cytochrome c release from isolated mitochondria; format: biochemical
Text: Studies have shown that the widely existing cytochrome c plays an important role in inducing apoptosis. Cytochrome c is the water soluble cytochrome within the cell and existed at the outside of the mitochondria inner membrane. Cytochrome c could be released into the cytoplasm from the mitochondrial to activate the apoptotic program. This study first purified the His-tagged Bax protein from the bacteria by the Metal Affinity method. When added to the isolated mitochondria, it caused a significant decrease of mitochondrial cytochrome c content (74.43±5.69 ug/mg, pro vs 50.2±3.65 ug/mg pro, p<0.01). […] It means that (−) clausenamide may also act directly on mitochondrial itself to exert its antiapoptotic activity independent Bcl-2. The exact mechanism of action still remains to be determined.

[4] = tested on: animals; assay: memory in water maze test; format: in vivo; settings: 10 mg/kg
Text: This invention used one trial avoidance task—step-down and step-through tests and water maze to compare the improving memorial effects of (±), (−) clausenamide. The drugs were given orally once to animals before experiment in step-down and step-through tests. The water maze test lasted for 5 days in succession. The results were expressed as latency and errors number.

[5] = tested on: A β 25-35 treated rats; assay: Morris water maze, A β 25-35 induced impairment of memory; format: in vivo
Text: Pathological features of Alzheimer's disease (AD) include extensive neuronal loss and the presence of numerous neurofibrillary tangles and senile plaques in the brain. The senile plaques contain amyloid fibrils derived from a 39-43 amino acids peptide referred to as β-amyloid or A β which can produce neurotoxicity. A β 25-35 poccesses the similar neurotoxicity and ability of self-aggregation as A β 1-42. Administrated aggregated A β 25-35 into rat's lateral cerebral ventricle induced memory impairment in Morris water maze.
With increasing of training days, the initial heading angle became small. On the 3th day, the initial heading angle of A β group was larger than control. […] (see Tab.3)
There are four strategies for finding platform in Morris water maze: random, circle, taxis and line. In the beginning of training the search strategies for finding target is mainly circle and random, with the increasing of training, the percentage of the two strategies declined gradually, Beginning from the 3th day, declining speed in control and (−) clausenamide group was faster than A β,(+) clausenamide and piracetam groups.

[6] = tested on: weaning mice; assay: synapses density in weaning mice; settings: mouse, in vivo
[7] = tested on: apoptosis; assay: three apoptotic models; format: cell-based; settings: 10^−7−10^−5 mol/l
[8] = tested on: Bax α high expressing PC12 cells; assay: mitochondrial membrane potential in 6-OHDA treated Bax α high expressing PC12 cells; format: cell-based; settings: 6-OHDA 12 hours, without drug 24.6
Text: Obviously, the increased mitochondrial membrane potential is considered to be one of the antiapoptotic mechanisms of (−) Clausenamide. The increased mitochondrial complex I and complex IV activity may account for the increased mitochondrial membrane potential. The Bax α protein may induce apoptosis by affecting enzyme activities of the mitochondrial electron transfer chain. And the mitochondrial complex I and complex IV could be the targeting points of the Bax α protein.

[9] = tested on: Bax α high expressing PC12 cells; assay: 6-OHDA induced apoptosis of Bax α high expressing PC12 cells (TUNEL, flowcytometry); format: cell-based; settings: 6-OHDA 100 μM, without drug 49.9%
Text: 1. The Construction of pcDNA3-bax α Plasmid and its Transfection into the PC12 Cell Line
In order to increase the expression level of the transfected gene, we first cut some of the 3′ polyA signal sequences from the Bax α cDNA and constructed the intermediate plasmid pBluescript SK-Bax α (pA). Then cut the Bax α cDNA from the intermediate plasmid, religate with the eukaryotic expression plasmid pcDNA3 and obtained the pcDNA3-Bax α recombinant plasmid. […] The recombinated Bax α has −50 bp of 5′ untranslated region(5′-UTR), 576 bp of open reading frame (ORF), and 137 bp of 3′ untranslated region (3′-UTR). The 5′ methionine translation initiation region has the Kozak consensus sequences. So this plasmid may be used to transform the Bax α gene into the mammalian cells and guarantees highly expression of Bax α by using its strong promoter.
The Lipofectamine transfecting method was used to transfect the pcDNA3-Bax α into the PC12 cell line. G-418 was used to select the resistant cell clones. […] This experiment successfully produced the Bax α high expressing PC12 cell line.
Under normal condition, the Bax α high expressing cells had the same natural apoptosis rate with the neo transfected PC12 cells.

CN1C(=O)[C@@H](O)[C@H](c2ccccc2)[C@@H]1[C@@H](O)c1ccccc1 [(−)clausenamide, 3S, 4R, 5R, 6S (−) Levoclausenamide]
protein biosyntheses of mice brain [1]: increased
zif/268 mRNA and protein expression [1]: promoted
calpain activity, Cortical tissue ([2]; control 1.5 ± 0.2): 2.6 ± 0.5 ΔA595nm/hr/mg protein
calpain activity, Hippocampal tissue ([2]; control 1.7 ± 0.5): 2.7 ± 0.8 ΔA595nm/hr/mg protein
mitochondrial cytochrome c content after Bax α induced release ([3]; 10^−5M, Bax alone 50.2±3.65): 67.95±7.6 μg/mg pro
mitochondrial cytochrome c content after Bax α induced release ([3]; 10^−6M, Bax alone 50.2±3.65): 61.7±5.3 μg/mg pro
mitochondrial cytochrome c content after Bax α induced release ([3]; 10^−7M, His-tagged Bax alone 50.2±3.65, no Bax 74.43±5.69): 58.73±3.77 μg/mg pro
Lalencies reaching platform, 3rd day [4]: 17.4 ± 10.9 s
Lalencies reaching platform, 4th day [4]: 12.1 ± 6.9 s
Lalencies reaching platform, Second day [4]: 28.7 ± 35.2 s
spatial learning and memory impairment induced by aggregated A β 25-35 ([5]; 8,40 mg·kg^−1 daily for 8 days from the 8th day after icv 15 nmol aggregated A β 25-35): significantly ameliorated
initial heading angle on the 3th day (in words) ([5]; (−),(+) clausenamide 8 and 40 mg.kg^−1, piracetam 400 mg·kg^−1, vs A β group): significantly reduced the angle
latency for finding the platform, 3th to 5th day ([5]; (−),(+) clausenamide 8 and 40 mg·kg^−1, piracetam 400 mg.kg^−1, vs A β group): shorter than that of A β group
initial heading angle, training day 1 ([5]; A β 25-35 + drug at 8 mg/kg): 89.7 ± 29.4
initial heading angle, training day 2 ([5]; A β 25-35 + drug at 8 mg/kg): 72.3 ± 19.8
initial heading angle, training day 3 ([5]; A β 25-35 + drug at 8 mg/kg): 46.5 ± 21.2
initial heading angle, training day 4 ([5]; A β 25-35 + drug at 8 mg/kg): 30.4 ± 14.8
initial heading angle, training day 5 ([5]; A β 25-35 + drug at 8 mg/kg): 17.6 ± 9.5
initial heading angle, training day 1 ([5]; A β 25-35 + drug at 40 mg/kg): 101.5 ± 24.3
initial heading angle, training day 2 ([5]; A β 25-35 + drug at 40 mg/kg): 83.5 ± 21.8
initial heading angle, training day 3 ([5]; A β 25-35 + drug at 40 mg/kg): 51.2 ± 18.7
initial heading angle, training day 4 ([5]; A β 25-35 + drug at 40 mg/kg): 28.4 ± 13.2
initial heading angle, training day 5 ([5]; A β 25-35 + drug at 40 mg/kg): 20.7 ± 8.7
appearance of taxis and line search strategies ([5]; from the 3th training day): increased markedly
synapses density in weaning mice [6]: increased synapses density
apoptosis in three apoptotic models [7]: inhibited apoptosis significantly
mitochondrial membrane potential ([8]; 10^−6M): 56.0±5.0
mitochondrial membrane potential ([8]; 10^−7M): 30.7±3.3
apoptotic rate ([9]; 10^−5M): 9.5%
apoptotic rate ([9]; 10^−6M): 28.1%
apoptotic rate ([9]; 10^−7M): 36.23%
